Drawing on ChEMBL document CHEMBL1156861, “Synthesis and structure-activity relationship of substitutions at the C-1 position of Delta9-tetrahydrocannabinol” (Bioorg Med Chem Lett, 2010), this text covers Ki and Ratio Ki for 30 compounds.

In one assay the target is Cannabinoid receptor 1 (Homo sapiens, UniProt P21554). The assay is described as follows: Displacement of [3H]CP-55940 from CB1 receptor. In general terms: Displacement assays read how much labelled ligand stays bound in the presence of the test substance.
The target in another assay is Cannabinoid receptor 2 (Homo sapiens, UniProt P34972). The assay is described as follows: Displacement of [3H]CP-55940 from CB2 receptor.
A short description of assay [1]: Selectivity ratio of Ki for CB1 receptor to Ki for CB2 receptor.

As usually defined, the Ki is a measure of affinity in units of concentration, obtained from inhibition or displacement. Read a low Ki as tighter binding.

Cannabinoid receptor 1, sequence (P21554 whole entry): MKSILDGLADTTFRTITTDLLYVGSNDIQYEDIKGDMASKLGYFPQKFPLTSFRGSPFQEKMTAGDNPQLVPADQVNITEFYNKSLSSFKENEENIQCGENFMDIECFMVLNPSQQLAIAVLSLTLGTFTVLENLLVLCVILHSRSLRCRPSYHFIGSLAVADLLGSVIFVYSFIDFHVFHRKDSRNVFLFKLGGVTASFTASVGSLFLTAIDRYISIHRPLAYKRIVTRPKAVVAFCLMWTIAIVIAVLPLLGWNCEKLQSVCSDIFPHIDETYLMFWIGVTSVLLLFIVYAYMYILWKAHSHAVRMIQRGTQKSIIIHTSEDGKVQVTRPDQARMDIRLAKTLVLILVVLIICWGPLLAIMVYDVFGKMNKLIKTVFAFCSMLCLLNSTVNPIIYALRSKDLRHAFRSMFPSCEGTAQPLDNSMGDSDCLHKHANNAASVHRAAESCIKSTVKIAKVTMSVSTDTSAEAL
Cannabinoid receptor 2, sequence (P34972 whole entry): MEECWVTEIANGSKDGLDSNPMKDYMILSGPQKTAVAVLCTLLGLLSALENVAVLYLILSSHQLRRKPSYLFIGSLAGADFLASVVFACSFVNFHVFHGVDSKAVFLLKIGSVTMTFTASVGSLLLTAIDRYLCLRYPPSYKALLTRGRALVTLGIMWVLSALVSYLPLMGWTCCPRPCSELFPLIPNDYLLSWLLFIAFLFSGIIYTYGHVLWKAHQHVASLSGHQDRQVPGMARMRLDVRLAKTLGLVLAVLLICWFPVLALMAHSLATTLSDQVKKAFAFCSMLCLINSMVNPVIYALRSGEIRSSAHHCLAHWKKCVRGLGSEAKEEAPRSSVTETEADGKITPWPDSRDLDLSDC

Take `CCCCCCC(C)(C)c1cc(N)c2c(c1)OC(C)(C)[C@@H]1CCC(C)=C[C@@H]21`: the values for the Ki at Cannabinoid receptor 1 and at Cannabinoid receptor 2 were 0.0117 µM and 0.0029 µM, respectively. The Ratio Ki in assay [1] amounted to 4.
In the case of `CCCCCCC(C)(C)c1cc(NC(=O)NC)c2c(c1)OC(C)(C)[C@@H]1CCC(C)=C[C@@H]21`, the Ki at Cannabinoid receptor 1 worked out at 0.333 µM; on Cannabinoid receptor 2 it was 0.257 µM. Further, the Ratio Ki in assay [1] is 1.
As for `CCCCCc1cc2c(c(C(N)=O)c1)[C@@H]1C=C(C)CC[C@H]1C(C)(C)O2`, the figures for the Ki on Cannabinoid receptor 1 and on Cannabinoid receptor 2 were above 3 µM and 2.19 µM, respectively.
The like results for `CCCCCc1cc2c(c(C(=O)NC(CO)CO)c1)[C@@H]1C=C(C)CC[C@H]1C(C)(C)O2` were, in that order, above 3 µM and 2 µM.
The like results for `CCCCCc1cc(CNS(C)(=O)=O)c2c(c1)OC(C)(C)[C@@H]1CCC(C)=C[C@@H]21` were, in that order, above 3 µM and above 3 µM.
The like results for `CCCCCc1cc(CNC(C)=O)c2c(c1)OC(C)(C)[C@@H]1CCC(C)=C[C@@H]21` were, in that order, above 3 µM and 1.5 µM.
Turning to `CCCCCc1cc(NC(=O)c2ccncc2)c2c(c1)OC(C)(C)[C@@H]1CCC(C)=C[C@@H]21`, the inhibitory constant (Ki) on Cannabinoid receptor 1 was above 3 µM; at Cannabinoid receptor 2, 1.77 µM.
As to `CCCCCCC(C)(C)c1cc(C#N)c2c(c1)OC(C)(C)[C@@H]1CCC(C)=C[C@@H]21`, the inhibition constant Ki at Cannabinoid receptor 1 was found to be 0.0678 µM; at Cannabinoid receptor 2 it was 0.0053 µM. Also, the Ratio Ki in assay [1] turned out to be 13.
For the compound `CCCCCc1cc(CNC(N)=O)c2c(c1)OC(C)(C)[C@@H]1CCC(C)=C[C@@H]21`, the Ki on Cannabinoid receptor 1 is above 3 µM; on Cannabinoid receptor 2, 0.782 µM.
Regarding `CCCCCc1cc2c(c(C(=O)N(C)C)c1)[C@@H]1C=C(C)CC[C@H]1C(C)(C)O2`, the figures for the inhibitory constant (Ki) on Cannabinoid receptor 1 and at Cannabinoid receptor 2 were above 3 µM and 1.21 µM, respectively.
On to `CCCCCc1cc(C#N)c2c(c1)OC(C)(C)[C@@H]1CCC(C)=C[C@@H]21`, for which the results for the inhibitory constant (Ki) on Cannabinoid receptor 1 and at Cannabinoid receptor 2 were 1.72 µM and 0.387 µM, respectively. In assay [1], the Ratio Ki is 3.
Regarding `CCCCCc1cc2c(c([S+](C)[O-])c1)[C@@H]1C=C(C)CC[C@H]1C(C)(C)O2` (single isomer, unassigned; diastereomer A), the Ki at Cannabinoid receptor 1 was above 3 µM; at Cannabinoid receptor 2, 1.93 µM.
Take `CCCCCc1cc2c(c(C(=O)O)c1)[C@@H]1C=C(C)CC[C@H]1C(C)(C)O2`: the Ki on Cannabinoid receptor 1 and on Cannabinoid receptor 2 was above 3 µM each time.
Take `CCCCCc1cc(NS(C)(=O)=O)c2c(c1)OC(C)(C)[C@@H]1CCC(C)=C[C@@H]21`: the results for the inhibition constant Ki on Cannabinoid receptor 1 and at Cannabinoid receptor 2 were above 3 µM and 1.72 µM, respectively.
`CCCCCCC(C)(C)c1cc(NS(C)(=O)=O)c2c(c1)OC(C)(C)[C@@H]1CCC(C)=C[C@@H]21`: the inhibition constant Ki stood at 1.84 µM at Cannabinoid receptor 1 and 0.255 µM at Cannabinoid receptor 2. Further, the Ratio Ki in assay [1] is 7.
In the case of `CCCCCc1cc2c(c(N(C)C)c1)[C@@H]1C=C(C)CC[C@H]1C(C)(C)O2`, the inhibition constant Ki at Cannabinoid receptor 1 and at Cannabinoid receptor 2 was above 3 µM each time.
For the compound `CCCCCc1cc2c(c([S+](C)[O-])c1)[C@@H]1C=C(C)CC[C@H]1C(C)(C)O2` (single isomer, unassigned; diastereomer B), the inhibition constant (Ki) at Cannabinoid receptor 1 and at Cannabinoid receptor 2 was above 3 µM in each case.
In the case of `CCCCCc1cc(NC(N)=O)c2c(c1)OC(C)(C)[C@@H]1CCC(C)=C[C@@H]21`, the inhibitory constant (Ki) at Cannabinoid receptor 1 and at Cannabinoid receptor 2 was above 3 µM each time.
As for `CCCCCc1cc(NC(=O)CN(C)C)c2c(c1)OC(C)(C)[C@@H]1CCC(C)=C[C@@H]21`, the inhibition constant (Ki) on Cannabinoid receptor 1 and on Cannabinoid receptor 2 was above 3 µM each time.
Consider `CCCCCCC(C)(C)c1cc(O)c2c(c1)OC(C)(C)[C@@H]1CCC(C)=C[C@@H]21`, for which the figures for the inhibitory constant (Ki) on Cannabinoid receptor 1 and on Cannabinoid receptor 2 were 0.00024 µM and 0.0002 µM, respectively. Further, the Ratio Ki in assay [1] was determined as 1.
Consider `CCCCCc1cc(N)c2c(c1)OC(C)(C)[C@@H]1CCC(C)=C[C@@H]21`, for which the inhibition constant (Ki) at Cannabinoid receptor 1 stood at 0.616 µM; on Cannabinoid receptor 2, 0.215 µM. For the same compound, the Ratio Ki in assay [1] was 3.
Turning to `CCCCCc1cc(CN)c2c(c1)OC(C)(C)[C@@H]1CCC(C)=C[C@@H]21`, the Ki on Cannabinoid receptor 1 and at Cannabinoid receptor 2 was above 3 µM each time.
As for `CCCCCc1cc2c(c(SC)c1)[C@@H]1C=C(C)CC[C@H]1C(C)(C)O2`, the inhibition constant (Ki) on Cannabinoid receptor 1 stood at 0.955 µM; at Cannabinoid receptor 2, 0.469 µM. For the same compound, the Ratio Ki in assay [1] worked out at 2.
For the compound `CCCCCc1cc2c(c(C(=O)NC)c1)[C@@H]1C=C(C)CC[C@H]1C(C)(C)O2`, the Ki on Cannabinoid receptor 1 is above 3 µM; at Cannabinoid receptor 2 it was 1.26 µM.
Turning to `CCCCCc1cc(NC(C)=O)c2c(c1)OC(C)(C)[C@@H]1CCC(C)=C[C@@H]21`, the Ki on Cannabinoid receptor 1 was above 3 µM; at Cannabinoid receptor 2, 1.4 µM.
Consider `CCCCCCC(C)(C)c1cc(NC(C)=O)c2c(c1)OC(C)(C)[C@@H]1CCC(C)=C[C@@H]21`, for which the inhibition constant (Ki) on Cannabinoid receptor 1 came out at 1.34 µM; at Cannabinoid receptor 2, 0.216 µM. Also, the Ratio Ki in assay [1] worked out at 6.
The like results for `CCCCCCC(C)(C)c1cc(NC(=O)c2ccncc2)c2c(c1)OC(C)(C)[C@@H]1CCC(C)=C[C@@H]21` were, in that order, above 3 µM, 1.09 µM and above 3.
On to `CCCCCc1cc(NC(=O)OC)c2c(c1)OC(C)(C)[C@@H]1CCC(C)=C[C@@H]21`, for which the Ki at Cannabinoid receptor 1 is above 3 µM; on Cannabinoid receptor 2, 1.4 µM.
As to `CCCCCc1cc2c(c(C(=O)NCC(N)=O)c1)[C@@H]1C=C(C)CC[C@H]1C(C)(C)O2`, the inhibition constant Ki at Cannabinoid receptor 1 and at Cannabinoid receptor 2 was above 3 µM each time.
As to `CCCCCc1cc(NC(=O)NC)c2c(c1)OC(C)(C)[C@@H]1CCC(C)=C[C@@H]21`, the Ki at Cannabinoid receptor 1 is above 3 µM; at Cannabinoid receptor 2, 2.05 µM.
